SMILES strings stand for the structures.

What all share (format): biochemical
Experiment [1] in a line: Anti-oxidant assay (DPPH radical scavenging activity). In general terms: The DPPH test is a chemical assay of radical scavenging.
A short description of experiment [2]: Hydroxyl radical scavenging activity. Particulars: for TBARS Inhibition (%): Table 6 (hydroxyl radical scavenging).
A short description of experiment [3]: Lipid peroxidation (TBARS) inhibition assay. Particulars: for TBARS Inhibition (%): Table 7.

`O=C1O[C@H]([C@@H](O)CO)C(O)=C1O` [Ascorbic Acid, ascorbic acid]: the “DPPH radical inhibition (%)” value in experiment [1] (Conc. 3.125 μl/ml) was found to be 29.93%; in experiment [1] (Conc. 6.25 μl/ml), 52.42%; in experiment [1] (Conc. 12.5 μl/ml), 71.28%; in experiment [1] (Conc. 25 μl/ml), 87.88%; in experiment [1] (Conc. 50 μl/ml), 92.05%; in experiment [1] (Conc. 100 μl/ml) it was 95.01%. Moreover, the “DPPH radical inhibition (%)” value in experiment [1] (Conc. 200 μl/ml) was found to be 29.93%. In experiment [1] (from graph of % inhibition vs concentration), the “Inhibitory concentration [IC50], DPPH” value was 17.30 µg/mL. Moreover, the “Inhibitory concentration [IC50], hydroxyl radical” value in experiment [2] came to 30.83 µg/mL. The “TBARS Inhibition (%)” value in experiment [2] (Conc. 6.25 μl/ml) was 35.27%; in experiment [2] (Conc. 12.5 μl/ml), 42.80%; in experiment [2] (Conc. 25 μl/ml), 53.76%; in experiment [2] (Conc. 50 μl/ml) it was 64.72%; in experiment [2] (Conc. 100 μl/ml) it was 64.43%; in experiment [2] (Conc. 200 μl/ml) it was 76.71%. Also, the “TBARS Inhibition (%)” value in experiment [3] (Conc. 6.25 μl/ml) is 36.0%; in experiment [3] (Conc. 12.5 μl/ml) it was 47.69%; in experiment [3] (Conc. 25 μl/ml), 54.76%; in experiment [3] (Conc. 50 μl/ml), 62.15%; in experiment [3] (Conc. 100 μl/ml) it was 68.92%; in experiment [3] (Conc. 200 μl/ml), 72.61%. In addition, in experiment [3], the “Inhibitory concentration [IC50], lipid peroxidation (TBARS)” value came to 20.32 µg/mL.

Source of the values: patent US20230134228A1, “SYNERGISTIC HERBAL COMPOSITION AS A BROAD-SPECTRUM PROPHYLACTIC MAJOR AND METHOD TO PREPARE THE SAME” (priority 2020, published 2023).
